Test results from article PMC9558223, “Staphylococcus aureus is able to generate resistance to novel lipoglycopeptide antibiotic gausemycin A” (Frontiers in Microbiology, 2022).

Tests used:
[1] = tested on: Staphylococcus aureus 5812R; test: ID32 Staph strip, resistance (novobiocin); format: cell-based; details: colorimetric test
Protocol: (§1) The biochemical properties were assayed using the ID32 Staph strip (BioMerieux, France), which consists of a set of wells containing dried biochemical media for colorimetric tests.

[2] = tested on: Staphylococcus aureus FDA209 P; test: ID32 Staph strip, resistance (novobiocin); format: cell-based; details: colorimetric test
Protocol: as §1

S. aureus FDA209P [3] = test: Serial passaging in increasing concentrations of antimicrobials; format: cell-based, Staphylococcus aureus; details: for The highest concentration of antibiotic allowing growth: Mueller-Hinton II broth (CaCl2 50 mg/L), 37 °C, 24 h
Protocol: Gausemycin A-resistant variant was obtained by serial passaging as described previously (Pollard et al., [2012]). Isolated colonies of S. aureus FDA209P were inoculated into Mueller-Hinton II broth (CaCl2 50 mg/L) containing twofold dilutions of gausemycin A. The cultures were incubated at 37 °C with aeration for 24 h. After incubation, bacterial cells growing at the highest concentration of gausemycin A (below the MIC) were harvested and used for the next passage. The process was repeated for 20 passages. The dynamic of the developing resistance to gausemycin A was evaluated in comparison with daptomycin and ramoplanin. The experiments were performed in two independent series on separate days with three technical replicates each.

S. aureus 5812R [4] = test: microbe, parasite or virus in culture; format: cell-based, Staphylococcus aureus
Protocol: (§2) Minimal inhibitory concentration (MIC) was determined as previously described in Fuchs et al. ([2000]), following the Clinical and Laboratory Standards Institute (CLSI) guidelines for broth microdilution MIC assay. The bacteria were incubated in a 96-well microtiter plate (Eppendorf, Germany) containing 90 μL of inoculum prepared in growth media at 10^6 CFU/ml with 10 μL of twofold dilutions of the antibiotics. The results were evaluated after 24 h of cultivation at 37 °C. The bacterial growth was assessed by scanning the absorbance data at 600 nm obtained by spectrophotometer (Multiscan GO, Thermo Fisher Scientific, US).

S. aureus FDA209P [5] = test: microbe, parasite or virus in culture; format: cell-based, Staphylococcus aureus; details: broth microdilution (CLSI), 10^6 CFU/ml, 24 h, 37 °C, absorbance at 600 nm
Protocol: as §2

S. aureus 5812R [6] = test: Membrane integrity assay (SYTO 9 / propidium iodide); format: cell-based, Staphylococcus aureus; details: 10 mM HEPES, 1.25 mM Ca2+, 10^8 CFU/ml, end-point 10 min
Protocol: (§3) Membrane integrity was assessed using the fluorescent probes SYTO 9 and propidium iodide (PI) (LIVE/DEAD BacLight Bacterial Viability Kit, Molecular Probes, USA). The test strains were grown to the mid-log phase. The obtained cultures were centrifuged at 10,000 rpm for 10 min, the supernatant was discarded and the pellet was dispersed in 10 mM HEPES buffer supplemented with 1.25 mM Ca ^2+ to an optical density of 0.2 (OD 600) that corresponded to 10^8 CFU/ml. Bacterial cells in 50 μl were transferred to a 96-well microtiter plate (Eppendorf, US). SYTO 9 fluorescence kinetics was measured using Fluoroscan Ascent FL plate reader (Thermo Scientific, US) at 485 nm excitation and 535 nm of emission wavelengths as described earlier (Vasilchenko et al., [2020]). The assay was performed twice in three technical replicates.
(§4) Microscopy was performed using a Zeiss Axio Imager A2 fluorescent microscope (Carl Zeiss, Germany) equipped with filter sets useful for simultaneous viewing of SYTO 9 and PI stains.

S. aureus FDA209P [7] = test: as above; format: cell-based, Staphylococcus aureus; details: 10 mM HEPES, 1.25 mM Ca2+, 10^8 CFU/ml, end-point 10 min
Protocol: as §3, §4

S. aureus 5812R [8] = test: Resistance stability testing (passaging in drug-free medium); format: cell-based, Staphylococcus aureus; details: 17 passages in gausemycin A-free Muller-Hinton broth
Protocol: The overnight culture of S. aureus 5812R was sub-cultured in gausemycin A-free Muller-Hinton broth and incubated overnight at 37°C with shaking. The obtained culture was evaluated on susceptibility to gausemycin A in the MIC assay as described previously. Passaging in the drug-free medium was repeated 17 times. The experiments were performed in two independent series on separate days with three technical replicates each.

[9] = tested on: biofilm-embedded staphylococcal cells; details: ref Vasilchenko et al., 2020; cited from earlier work
Source text: These lipoglycopeptides were firstly described in 2016 (Lapchinskaya et al., [2016]), and consequently named gausemycins A and B (Tyurin et al., [2021]). Gausemycin A is a macrocyclic peptide containing 14 amino acids, where tyrosine is glycosylated with arabinose, which makes gausemycin A unique among natural peptide antibiotics (Tyurin et al., [2021]). The closest structurally related compounds are depsipeptides (daptomycin, taromycins, and cadazides) and cyclopeptides ( ...

CO[C@@H]1[C@@H](OC(N)=O)[C@@H](O)[C@H](Oc2ccc3c(O)c(NC(=O)c4ccc(O)c(CC=C(C)C)c4)c(=O)oc3c2C)OC1(C)C [novobiocin]
Resistance (Novobiocin) [1]: Positive | Resistance (Novobiocin) [2]: Positive

Gausemycin A
The highest concentration of antibiotic allowing growth (S. aureus FDA209P [3]; passage 1): 2.5 µg/mL | The highest concentration of antibiotic allowing growth (S. aureus FDA209P [3]; passage 2): 2.5 µg/mL | The highest concentration of antibiotic allowing growth (S. aureus FDA209P [3]; passage 3): 5 µg/mL | The highest concentration of antibiotic allowing growth (S. aureus FDA209P [3]; passage 4): 5 µg/mL | The highest concentration of antibiotic allowing growth (S. aureus FDA209P [3]; passage 5): 5 µg/mL | The highest concentration of antibiotic allowing growth (S. aureus FDA209P [3]; passage 6): 5 µg/mL | The highest concentration of antibiotic allowing growth (S. aureus FDA209P [3]; passage 7): 5 µg/mL | The highest concentration of antibiotic allowing growth (S. aureus FDA209P [3]; passage 8): 10 µg/mL | The highest concentration of antibiotic allowing growth (S. aureus FDA209P [3]; passage 9): 20 µg/mL | The highest concentration of antibiotic allowing growth (S. aureus FDA209P [3]; passage 10): 40 µg/mL | The highest concentration of antibiotic allowing growth (S. aureus FDA209P [3]; passage 11): 40 µg/mL | The highest concentration of antibiotic allowing growth (S. aureus FDA209P [3]; passage 12): 40 µg/mL | The highest concentration of antibiotic allowing growth (S. aureus FDA209P [3]; passage 13): 50 µg/mL | The highest concentration of antibiotic allowing growth (S. aureus FDA209P [3]; passage 14): 100 µg/mL | The highest concentration of antibiotic allowing growth (S. aureus FDA209P [3]; passage 15): 100 µg/mL | The highest concentration of antibiotic allowing growth (S. aureus FDA209P [3]; passage 16): 100 µg/mL | The highest concentration of antibiotic allowing growth (S. aureus FDA209P [3]; passage 17): 150 µg/mL | The highest concentration of antibiotic allowing growth (S. aureus FDA209P [3]; passage 18): 200 µg/mL | The highest concentration of antibiotic allowing growth (S. aureus FDA209P [3]; passage 19): 200 µg/mL | The highest concentration of antibiotic allowing growth (S. aureus FDA209P [3]; passage 20): >200 µg/mL | Number of passages within which resistance was formed (S. aureus FDA209P [3]; serial passages with sub-inhibitory concentrations): ≤ 20 passages | MIC (S. aureus 5812R [4]; S. aureus 5812R, broth microdilution (CLSI), 10^6 CFU/ml, 24 h, 37 °C, absorbance at 600 nm): >200 µg/mL | Change of MIC / resistance of S. aureus 5812R compared to parent strain S. aureus FDA209P (S. aureus 5812R [4]; ratio of MIC for 5812R and FDA209P): 80 fold | MIC (S. aureus FDA209P [5]): 2.5 µg/mL | Quenching of SYTO9 fluorescence (S. aureus 5812R [6]): not achieved at all taken concentrations | Concentration giving complete quenching of SYTO9 fluorescence (S. aureus FDA209P [7]): 50 µg/mL | Stability of resistance (MIC after passaging in drug-free medium) (S. aureus 5812R [8]): did not change the MIC value | Inhibition of biofilm-embedded staphylococcal cells [9]: able to inhibit
